# How the values were obtained:
# [1] = In vitro skin permeation from TTS, nude guinea pig skin model; type: in vitro ADME
# Method: Diamorphine is determined as total of heroin+morphine metabolite.
# [2] = Rate of hydrolytic breakdown of diamorphine base in solvents (diamorphine content over time); details: for Diamorphine content: area percentages
# [3] = Saturation solubility of diamorphine base in solvents
# heroin addicts = details: cited from earlier work
smiles,measurement,setting,value
"CC(=O)Oc1ccc2c3c1O[C@H]1[C@@H](OC(C)=O)C=C[C@H]4[C@@H](C2)N(C)CC[C@@]341 [diamorphine base, diamorphine]",Skin passage in relation to morphine and buprenorphine,"[1]; TTS matrix of same base formulation and loading, citrate buffer pH=3.0 + 0,1% NaN3, T=37° C., diamorphine determined as total of heroin + morphine metabolite",better skin passage
same,Skin flux in flow equilibrium (permeation rate) compared with morphine and buprenorphine,"[1]; nude guinea pig skin, TTS of identical formulation, in some cases",markedly higher
same,Effect of combinations of vitamin E with a further aprotic solvent on the rate of hydrolytic breakdown,[2]; combinations of vitamin E with solvent (Table 1),surprisingly positive stabilizing effect
same,Diamorphine content,"[2]; solvent Benzyl nicotinate/Vitamin E 1:1, t = 0.5 h",99.2%
same,Diamorphine content,"[2]; solvent Benzyl nicotinate/Vitamin E 1:1, t = 24 h",99.0%
same,Diamorphine content,"[2]; solvent Benzyl nicotinate, t = 0.5 h",97.8%
same,Diamorphine content,"[2]; solvent Benzyl nicotinate, t = 24 h",86.5%
same,Diamorphine content,"[2]; solvent Dimethylisosorbide/Vitamin E 1:1, t = 0.5 h",100%
same,Diamorphine content,"[2]; solvent Dimethylisosorbide/Vitamin E 1:1, t = 24 h",99.8%
same,Diamorphine content,"[2]; solvent Dimethylisosorbide, t = 0.5 h",98.5%
same,Diamorphine content,"[2]; solvent Dimethylisosorbide, t = 24 h",93.5%
same,Diamorphine content,"[2]; solvent Lemon oil/Vitamin E 1:1, t = 0.5 h",99.1%
same,Diamorphine content,"[2]; solvent Lemon oil/Vitamin E 1:1, t = 24 h",98.9%
same,Diamorphine content,"[2]; solvent Lemon oil, t = 0.5 h",93.5%
same,Diamorphine content,"[2]; solvent Lemon oil, t = 24 h",80.5%
same,Diamorphine content,"[2]; solvent N-Methylpyrrolidone/Vitamin E 1:1, t = 0.5 h",99.8%
same,Diamorphine content,"[2]; solvent N-Methylpyrrolidone/Vitamin E 1:1, t = 24 h",99.7%
same,Diamorphine content,"[2]; solvent N-Methylpyrrolidone, t = 0.5 h",97.8%
same,Diamorphine content,"[2]; solvent N-Methylpyrrolidone, t = 24 h",87.8%
same,Diamorphine content,"[2]; solvent Oleic acid/Vitamin E 1:1, t = 0.5 h",99.6%
same,Diamorphine content,"[2]; solvent Oleic acid/Vitamin E 1:1, t = 24 h",99.6%
same,Diamorphine content,"[2]; solvent Oleic acid, t = 0.5 h",97.4%
same,Diamorphine content,"[2]; solvent Oleic acid, t = 24 h",90.3%
same,Diamorphine content,"[2]; solvent R-(+)-Limonene/Vitamin E 1:1, t = 0.5 h",99.7%
same,Diamorphine content,"[2]; solvent R-(+)-Limonene/Vitamin E 1:1, t = 24 h",99.6%
same,Diamorphine content,"[2]; solvent R-(+)-Limonene, t = 0.5 h",96.7%
same,Diamorphine content,"[2]; solvent R-(+)-Limonene, t = 24 h",87.7%
same,Diamorphine content,"[2]; solvent Tween 80/Vitamin E 1:1, t = 0.5 h",100%
same,Diamorphine content,"[2]; solvent Tween 80/Vitamin E 1:1, t = 24 h",100%
same,Diamorphine content,"[2]; solvent Tween 80, t = 0.5 h",99%
same,Diamorphine content,"[2]; solvent Tween 80, t = 24 h",93.4%
same,Diamorphine content,"[2]; solvent Vitamin E, t = 0.5 h",100%
same,Diamorphine content,"[2]; solvent Vitamin E, t = 24 h",100%
same,solubility,"[3]; Benzyl nicotinate, organic solvent or mixture",23.2 mg/mL
same,solubility,"[3]; Benzyl nicotinate/Vitamin E 1:1, organic solvent or mixture",17.7 mg/mL
same,solubility,"[3]; Dimethylisosorbide, organic solvent or mixture",12.8 mg/mL
same,solubility,"[3]; Dimethylisosorbide/Vitamin E 1:1, organic solvent or mixture",9.82 mg/mL
same,solubility,"[3]; Lemon oil, oil or lipid",10.3 mg/mL
same,solubility,"[3]; Lemon oil/Vitamin E 1:1, oil or lipid",8 mg/mL
same,solubility,"[3]; N-Methylpyrrolidone, organic solvent or mixture",32.2 mg/mL
same,solubility,"[3]; N-Methylpyrrolidone/Vitamin E 1:1, organic solvent or mixture",24.8 mg/mL
same,solubility,"[3]; Oleic acid, oil or lipid",22.6 mg/mL
same,solubility,"[3]; Oleic acid/Vitamin E 1:1, oil or lipid",17.2 mg/mL
same,solubility,"[3]; R-(+)-Limonene, organic solvent or mixture",25.1 mg/mL
same,solubility,"[3]; R-(+)-Limonene/Vitamin E 1:1, organic solvent or mixture",19 mg/mL
same,solubility,"[3]; Tween 80, organic solvent or mixture",5.81 mg/mL
same,solubility,"[3]; Tween 80/Vitamin E 1:1, organic solvent or mixture",4.45 mg/mL
same,solubility,"[3]; Vitamin E, oil or lipid",1.62 mg/mL
same,State of health of the heroin addicts,"heroin addicts; state-controlled administration, intravenous or pulmonary (cigarettes), 969 heroin addicts",Marked improvements
CCC(=O)C(CC(C)N(C)C)(c1ccccc1)c1ccccc1 (centres unmarked) [methadone],Therapy of heroin dependents compared with heroin,"heroin addicts; even on intravenous administration, Swiss experiment",inferior to heroin

# — US20050053647A1, “Pharmaceutical product comprising the active substance diamorphine, and its use in a process for treating opiate addiction” (priority 1999, published 2005)
